Experimental data reported in patent US20240246967A1, “AXL COMPOUNDS” (ARCUS BIOSCIENCES, INC., priority 2021, published 2024).

Key:
human MER = target: T1, human MER (Homo sapiens, UniProt Q12866); assay: HTRF KinEASE-TK biochemical potency assay, MER; conditions: 1 nM MER, 700 μM ATP, 800 nM TK Substrate-biotin
T1 construct: purchased Invitrogen
T1 sequence (Q12866 21-999): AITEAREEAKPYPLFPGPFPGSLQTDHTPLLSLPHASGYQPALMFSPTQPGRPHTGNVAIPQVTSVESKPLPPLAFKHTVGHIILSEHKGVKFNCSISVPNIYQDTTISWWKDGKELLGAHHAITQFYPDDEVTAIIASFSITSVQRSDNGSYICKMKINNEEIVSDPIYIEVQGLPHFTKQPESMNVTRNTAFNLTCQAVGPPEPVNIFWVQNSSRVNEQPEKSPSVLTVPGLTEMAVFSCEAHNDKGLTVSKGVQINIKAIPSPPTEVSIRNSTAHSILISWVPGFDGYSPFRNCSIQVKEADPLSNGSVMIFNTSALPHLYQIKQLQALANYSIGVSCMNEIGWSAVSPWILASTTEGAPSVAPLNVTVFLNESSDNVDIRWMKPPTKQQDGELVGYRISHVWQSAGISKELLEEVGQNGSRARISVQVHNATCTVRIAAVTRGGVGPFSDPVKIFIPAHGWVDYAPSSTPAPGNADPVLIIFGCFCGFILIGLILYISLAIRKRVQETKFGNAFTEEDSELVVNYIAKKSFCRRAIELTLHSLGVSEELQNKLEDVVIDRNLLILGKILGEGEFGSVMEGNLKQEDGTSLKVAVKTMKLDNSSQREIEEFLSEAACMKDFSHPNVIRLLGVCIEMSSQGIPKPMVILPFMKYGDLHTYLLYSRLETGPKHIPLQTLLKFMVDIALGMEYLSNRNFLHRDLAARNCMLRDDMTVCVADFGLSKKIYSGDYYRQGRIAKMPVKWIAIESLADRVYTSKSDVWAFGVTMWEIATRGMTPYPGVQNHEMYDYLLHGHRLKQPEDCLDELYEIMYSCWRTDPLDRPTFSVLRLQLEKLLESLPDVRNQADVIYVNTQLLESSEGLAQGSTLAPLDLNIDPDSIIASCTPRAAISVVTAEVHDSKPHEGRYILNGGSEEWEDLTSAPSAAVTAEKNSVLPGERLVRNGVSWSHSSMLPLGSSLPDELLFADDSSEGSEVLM
Summary of the method: (§1)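 Final conditions: 5 nM AXL, 1 nM TYRO3 or MER, 50 mM HEPES pH 7.4, 10 mM MgCl2, 0.01% BSA, 1 mM DTT, 700 μM ATP. Reaction ran 2 h at RT after 1 h preincubation with compound; HTRF signal read at 665/620 nm.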

human TYRO3 = target: T2, human TYRO3 (Homo sapiens, UniProt Q06418); assay: HTRF KinEASE-TK biochemical potency assay, TYRO3; conditions: 1 nM TYRO3, 700 μM ATP, 800 nM TK Substrate-biotin
T2 construct: purchased Invitrogen
T2 sequence (Q06418 41-890): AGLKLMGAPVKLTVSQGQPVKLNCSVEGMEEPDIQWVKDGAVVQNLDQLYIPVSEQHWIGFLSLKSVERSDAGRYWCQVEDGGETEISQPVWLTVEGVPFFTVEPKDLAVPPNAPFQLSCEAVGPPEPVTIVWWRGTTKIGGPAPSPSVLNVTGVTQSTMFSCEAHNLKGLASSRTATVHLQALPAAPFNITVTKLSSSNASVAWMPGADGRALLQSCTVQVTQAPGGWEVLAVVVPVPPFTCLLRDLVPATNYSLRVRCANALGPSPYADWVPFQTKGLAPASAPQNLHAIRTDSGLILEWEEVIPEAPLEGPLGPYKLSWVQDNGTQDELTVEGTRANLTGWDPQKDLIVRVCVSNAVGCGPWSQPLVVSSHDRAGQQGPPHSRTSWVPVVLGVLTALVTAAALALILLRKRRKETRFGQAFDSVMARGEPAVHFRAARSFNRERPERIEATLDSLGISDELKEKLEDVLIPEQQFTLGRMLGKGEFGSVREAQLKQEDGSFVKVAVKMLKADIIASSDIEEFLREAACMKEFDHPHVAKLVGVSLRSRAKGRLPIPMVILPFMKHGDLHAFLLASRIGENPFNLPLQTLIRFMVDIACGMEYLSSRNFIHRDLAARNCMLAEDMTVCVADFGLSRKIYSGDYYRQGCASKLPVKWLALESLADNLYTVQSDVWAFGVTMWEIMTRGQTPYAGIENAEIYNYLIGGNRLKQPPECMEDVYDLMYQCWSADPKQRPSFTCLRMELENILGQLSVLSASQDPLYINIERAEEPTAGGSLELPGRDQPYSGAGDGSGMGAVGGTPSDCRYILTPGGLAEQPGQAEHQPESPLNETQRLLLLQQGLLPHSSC
Summary of the method: as §1

An IC50 (human MER) greater than 1 µM and an IC50 (human TYRO3) of 0.1 to 1 µM were found for `COCCNCc1ccc(-c2n[nH]c3ncc(-c4ccc5c(c4)CCC(C)(N4CCC[C@H]4C)CC5)cc23)cc1` (stereo partly drawn) [Example 108, (2-Methoxyethyl)({[4-(5-{7-methyl-7-[(2R)-2-methylpyrrolidin-1-yl]-6,7,8,9-tetrahydro-5H-benzo[7]annulen-2-yl}-1H-pyrazolo[3,4-b]pyridin-3-yl)phenyl]methyl})amine] in this work.
An IC50 (human MER) greater than 1 µM and an IC50 (human TYRO3) of 0.1 to 1 µM were found for `C[C@@H]1CCCN1C1CCc2ccc(-c3cnc4[nH]nc(-c5ccc(S(=O)(=O)C6CC6)cc5)c4c3)cc2C(C)(C)C1` (stereo partly drawn) [Example 109, (2R)-1-(2-{3-[4-(Cyclopropanesulfonyl)phenyl]-1H-pyrazolo[3,4-b]pyridin-5-yl}-9,9-dimethyl-6,7,8,9-tetrahydro-5H-benzo[7]annulen-7-yl)-2-methylpyrrolidine] in this work.
An IC50 (human MER) of 0.1 to 1 µM and an IC50 (human TYRO3) of 0.1 to 1 µM were found for `COCCOc1ccc(-c2n[nH]c3ncc(-c4ccc5c(c4)CCC(C)(N4CCC[C@H]4C)CC5)cc23)cc1` (stereo partly drawn) [Example 110, 3-(4-(2-Methoxyethoxy)phenyl)-5-(7-methyl-7-((R)-2-methylpyrrolidin-1-yl)-6,7,8,9-tetrahydro-5H-benzo[7]annulen-2-yl)-1H-pyrazolo[3,4-b]pyridine] in this work.
An IC50 (human MER) of 0.1 to 1 µM and an IC50 (human TYRO3) of less than 0.1 µM were found for `COCCS(=O)(=O)c1ccc(-c2n[nH]c3ncc(-c4ccc5c(c4)CCC(C)(N4CCC[C@H]4C)CC5)cc23)cc1` (stereo partly drawn) [Example 111, (2R)-1-(2-{3-[4-(2-Methoxyethanesulfonyl)phenyl]-1H-pyrazolo[3,4-b]pyridin-5-yl}-7-methyl-6,7,8,9-tetrahydro-5H-benzo[7]annulen-7-yl)-2-methylpyrrolidine] in this work.
An IC50 (human MER) greater than 1 µM and an IC50 (human TYRO3) of 0.1 to 1 µM were found for `O=C([C@@H]1CCCN1)N1CCc2ccc(-c3cnc4[nH]nc(-c5ccc(S(=O)(=O)C6CC6)cc5)c4c3)cc2CC1` [Example 112, 7-{3-[4-(Cyclopropanesulfonyl)phenyl]-1H-pyrazolo[3,4-b]pyridin-5-yl}-3-[(2S)-pyrrolidine-2-carbonyl]-2,3,4,5-tetrahydro-1H-3-benzazepine] in this work.
An IC50 (human MER) greater than 1 µM and an IC50 (human TYRO3) of 0.1 to 1 µM were found for `O=C([C@H]1CCCN1)N1CCc2ccc(-c3cnc4[nH]nc(-c5ccc(S(=O)(=O)C6CC6)cc5)c4c3)cc2CC1` [Example 113, 7-{3-[4-(Cyclopropanesulfonyl)phenyl]-1H-pyrazolo[3,4-b]pyridin-5-yl}-3-[(2R)-pyrrolidine-2-carbonyl]-2,3,4,5-tetrahydro-1H-3-benzazepine] in this work.
An IC50 (human MER) greater than 1 µM and an IC50 (human TYRO3) of 0.1 to 1 µM were found for `COc1cc(-c2n[nH]c3ncc(-c4ccc5c(c4)CCC(C)(N4CCC[C@H]4C)CC5)cc23)ccc1OC[C@H]1COCCO1` (stereo partly drawn) [Example 114, (2R)-1-{2-[3-(4-{[(2R)-1,4-Dioxan-2-yl]methoxy}-3-methoxyphenyl)-1H-pyrazolo[3,4-b]pyridin-5-yl]-7-methyl-6,7,8,9-tetrahydro-5H-benzo[7]annulen-7-yl}-2-methylpyrrolidine] in this work.
An IC50 (human MER) of 0.1 to 1 µM and an IC50 (human TYRO3) of 0.1 to 1 µM were found for `CC1(N[C@H]2CCOC2)CCc2ccc(-c3cnc4[nH]nc(-c5ccc(S(=O)(=O)C6CC6)cc5)c4c3)cc2CC1` (stereo partly drawn) [Example 115, (3S)-N-(2-{3-[4-(Cyclopropanesulfonyl)phenyl]-1H-pyrazolo[3,4-b]pyridin-5-yl}-7-methyl-6,7,8,9-tetrahydro-5H-benzo[7]annulen-7-yl)oxolan-3-amine] in this work.
An IC50 (human MER) greater than 1 µM and an IC50 (human TYRO3) greater than 1 µM were found for `C[C@@H]1CCCN1C1(C)CCc2ccc(-c3cnc4[nH]nc(-c5ccc(C(=O)N[C@H]6CCOC6)cc5)c4c3)cc2CC1` (stereo partly drawn) [Example 117, 4-(5-{7-Methyl-7-[(2R)-2-methylpyrrolidin-1-yl]-6,7,8,9-tetrahydro-5H-benzo[7]annulen-2-yl}-1H-pyrazolo[3,4-b]pyridin-3-yl)-N-[(3S)-oxolan-3-yl]benzamide] in this work.
An IC50 (human MER) greater than 1 µM and an IC50 (human TYRO3) greater than 1 µM were found for `C[C@@H]1CCCN1C1(C)CCc2ccc(-c3cnc4[nH]nc(-c5ccc(C(=O)N6CCCC6)cc5)c4c3)cc2CC1` (stereo partly drawn) [Example 118, (2R)-2-Methyl-1-(7-methyl-2-{3-[4-(pyrrolidine-1-carbonyl)phenyl]-1H-pyrazolo[3,4-b]pyridin-5-yl}-6,7,8,9-tetrahydro-5H-benzo[7]annulen-7-yl)pyrrolidine] in this work.
An IC50 (human MER) greater than 1 µM and an IC50 (human TYRO3) of less than 0.1 µM were found for `Cc1cc(-c2n[nH]c3ncc(-c4ccc5c(c4)CCN(C4CC4)CC5)cc23)ccc1C(=O)N1CCNCC1` [Example 119, 3-Cyclopropyl-7-{3-[3-methyl-4-(piperazine-1-carbonyl)phenyl]-1H-pyrazolo[3,4-b]pyridin-5-yl}-2,3,4,5-tetrahydro-1H-3-benzazepine] in this work.
An IC50 (human MER) greater than 1 µM and an IC50 (human TYRO3) of 0.1 to 1 µM were found for `CC1(N2CCc3ccc(-c4cnc5[nH]nc(-c6ccc(S(=O)(=O)C7CC7)cc6)c5c4)cc3CC2)CCCC1` [Example 120, 7-{3-[4-(Cyclopropanesulfonyl)phenyl]-1H-pyrazolo[3,4-b]pyridin-5-yl}-3-(1-methylcyclopentyl)-2,3,4,5-tetrahydro-1H-3-benzazepine] in this work.
An IC50 (human MER) greater than 1 µM and an IC50 (human TYRO3) of 0.1 to 1 µM were found for `O=C1OCCN1c1ccc(-c2n[nH]c3ncc(-c4ccc5c(c4)CC[C@@H](N4C6COCC4C6)CC5)cc23)cc1` [Example 121, 3-(4-{5-[(7S)-7-{3-oxa-6-azabicyclo[3.1.1]heptan-6-yl}-6,7,8,9-tetrahydro-5H-benzo[7]annulen-2-yl]-2H-pyrazolo[3,4-b]pyridin-3-yl}phenyl)-1,3-oxazolidin-2-one] in this work.
An IC50 (human MER) greater than 1 µM and an IC50 (human TYRO3) greater than 1 µM were found for `O=C1CCCN1c1ccc(-c2n[nH]c3ncc(-c4ccc5c(c4)CC[C@@H](N4C6COCC4C6)CC5)cc23)cc1` [Example 122, 1-(4-{5-[(7S)-7-{3-oxa-6-azabicyclo[3.1.1]heptan-6-yl}-6,7,8,9-tetrahydro-5H-benzo[7]annulen-2-yl]-2H-pyrazolo[3,4-b]pyridin-3-yl}phenyl)pyrrolidin-2-one] in this work.
An IC50 (human MER) greater than 1 µM and an IC50 (human TYRO3) of 0.1 to 1 µM were found for `COCCOc1ccc(-c2n[nH]c3ncc(-c4ccc5c(c4)CC[C@@H](N4C6COCC4C6)CC5)cc23)cc1` [Example 123, 6-[(7S)-2-{3-[4-(2-methoxyethoxy)phenyl]-2H-pyrazolo[3,4-b]pyridin-5-yl}-6,7,8,9-tetrahydro-5H-benzo[7]annulen-7-yl]-3-oxa-6-azabicyclo[3.1.1]heptane] in this work.
An IC50 (human MER) of 0.1 to 1 µM and an IC50 (human TYRO3) of 0.1 to 1 µM were found for `CC(C)(C)S(=O)(=O)c1ccc(-c2n[nH]c3ncc(-c4ccc5c(c4)CC[C@@H](N4C6COCC4C6)CC5)cc23)cc1` [Example 124, 6-[(7S)-2-{3-[4-(2-methylpropane-2-sulfonyl)phenyl]-2H-pyrazolo[3,4-b]pyridin-5-yl}-6,7,8,9-tetrahydro-5H-benzo[7]annulen-7-yl]-3-oxa-6-azabicyclo[3.1.1]heptane] in this work.
An IC50 (human MER) of 0.1 to 1 µM and an IC50 (human TYRO3) of 0.1 to 1 µM were found for `CN(C)C(=O)c1ccc(-c2n[nH]c3ncc(-c4ccc5c(c4)CC[C@@H](N4C6COCC4C6)CC5)cc23)cc1` [Example 125, N,N-Dimethyl-4-{5-[(7S)-7-{3-oxa-6-azabicyclo[3.1.1]heptan-6-yl}-6,7,8,9-tetrahydro-5H-benzo[7]annulen-2-yl]-2H-pyrazolo[3,4-b]pyridin-3-yl}benzamide] in this work.
